Values of other authors, collected in paper PMC7515950, “Physiologically based pharmacokinetic modeling to assess metabolic drug–drug interaction risks and inform the drug label for fedratinib” (Cancer Chemotherapy and Pharmacology, 2020).
Where two headings read alike, the source gives them in different places.

Columns and labels:
[1] = molecular target: T1, OATP1B1 (Homo sapiens, UniProt Q9Y6L6); settings: read-out: Km of probe substrate, OATP1B1; from literature; ref [14]; cited from earlier work
T1 sequence (Q9Y6L6 1-691): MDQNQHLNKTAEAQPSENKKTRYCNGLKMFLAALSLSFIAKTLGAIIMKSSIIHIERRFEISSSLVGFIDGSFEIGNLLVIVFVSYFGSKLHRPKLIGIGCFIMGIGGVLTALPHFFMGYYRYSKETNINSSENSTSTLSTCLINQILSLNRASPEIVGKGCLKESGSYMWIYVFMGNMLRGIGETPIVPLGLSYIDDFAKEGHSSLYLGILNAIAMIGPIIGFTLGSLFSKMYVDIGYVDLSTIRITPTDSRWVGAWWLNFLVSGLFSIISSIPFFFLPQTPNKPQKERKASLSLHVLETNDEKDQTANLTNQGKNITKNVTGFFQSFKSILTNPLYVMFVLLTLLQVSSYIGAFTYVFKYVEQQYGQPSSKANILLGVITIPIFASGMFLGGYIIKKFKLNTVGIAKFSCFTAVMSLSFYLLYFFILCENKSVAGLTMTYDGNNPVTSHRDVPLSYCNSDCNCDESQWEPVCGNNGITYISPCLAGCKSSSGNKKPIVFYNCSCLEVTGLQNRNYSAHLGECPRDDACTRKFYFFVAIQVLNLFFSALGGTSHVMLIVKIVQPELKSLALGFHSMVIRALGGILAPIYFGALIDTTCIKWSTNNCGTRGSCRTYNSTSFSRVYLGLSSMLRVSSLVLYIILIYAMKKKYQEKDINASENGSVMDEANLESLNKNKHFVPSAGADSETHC

[2] = molecular target: T2, OCT2 (Homo sapiens, UniProt O15244); settings: read-out: Km of probe substrate, OCT2; from literature; ref [12]; cited from earlier work
T2 sequence (O15244 1-555): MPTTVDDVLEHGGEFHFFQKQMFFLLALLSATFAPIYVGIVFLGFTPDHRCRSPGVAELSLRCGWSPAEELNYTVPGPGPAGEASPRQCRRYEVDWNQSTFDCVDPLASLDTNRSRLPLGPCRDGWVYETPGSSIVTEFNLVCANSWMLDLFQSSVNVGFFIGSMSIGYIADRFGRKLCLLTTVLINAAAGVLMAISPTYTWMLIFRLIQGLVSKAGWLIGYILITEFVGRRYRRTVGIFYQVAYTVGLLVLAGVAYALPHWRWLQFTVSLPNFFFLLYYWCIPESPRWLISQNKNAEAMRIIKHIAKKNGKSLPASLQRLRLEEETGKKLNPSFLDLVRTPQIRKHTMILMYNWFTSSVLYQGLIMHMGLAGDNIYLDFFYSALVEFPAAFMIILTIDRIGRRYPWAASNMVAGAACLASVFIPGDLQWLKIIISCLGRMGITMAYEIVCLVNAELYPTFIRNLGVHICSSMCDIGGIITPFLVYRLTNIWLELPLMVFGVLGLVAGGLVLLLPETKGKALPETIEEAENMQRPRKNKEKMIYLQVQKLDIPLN

[3] = cancer patients, observation, cited from earlier work; for AUC GM Ratio (90% CI) / Cmax GM Ratio (90% CI): cocktail substrate with vs without fedratinib 500 mg QD
[4] = system: Caco-2/TC7; settings: reference compound of the Simcyp permeability input, 7.4:7.4; cited from earlier work
[5] = molecular target: T3, OCT1 (Homo sapiens, UniProt O15245); parameters: method as in earlier work; settings: from literature; ref [11]; read-out: Km of probe substrate, OCT1; cited from earlier work
T3 construct: expressed in transfected cells; host or cells: CHO^Fi-hOCT1
T3 sequence (O15245 1-554): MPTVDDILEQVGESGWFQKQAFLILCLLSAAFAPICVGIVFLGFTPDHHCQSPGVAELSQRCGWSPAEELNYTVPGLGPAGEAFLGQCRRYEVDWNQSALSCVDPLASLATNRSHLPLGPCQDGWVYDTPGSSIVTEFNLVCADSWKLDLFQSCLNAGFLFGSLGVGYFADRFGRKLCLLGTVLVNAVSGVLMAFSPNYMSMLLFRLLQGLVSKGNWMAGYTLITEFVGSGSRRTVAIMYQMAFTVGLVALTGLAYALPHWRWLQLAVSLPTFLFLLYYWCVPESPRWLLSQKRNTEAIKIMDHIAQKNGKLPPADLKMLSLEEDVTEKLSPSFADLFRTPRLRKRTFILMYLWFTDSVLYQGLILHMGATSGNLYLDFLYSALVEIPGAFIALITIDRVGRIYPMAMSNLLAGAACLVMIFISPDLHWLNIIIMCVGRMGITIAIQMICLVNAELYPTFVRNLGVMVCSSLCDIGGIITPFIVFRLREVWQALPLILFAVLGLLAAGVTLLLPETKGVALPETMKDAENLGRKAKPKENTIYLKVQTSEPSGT

[6] = molecular target: P-gp (Homo sapiens, UniProt P08183); settings: read-out: Km of probe substrate, P-gp; from literature; ref [16]; cited from earlier work
P-gp, sequence (P08183 whole entry): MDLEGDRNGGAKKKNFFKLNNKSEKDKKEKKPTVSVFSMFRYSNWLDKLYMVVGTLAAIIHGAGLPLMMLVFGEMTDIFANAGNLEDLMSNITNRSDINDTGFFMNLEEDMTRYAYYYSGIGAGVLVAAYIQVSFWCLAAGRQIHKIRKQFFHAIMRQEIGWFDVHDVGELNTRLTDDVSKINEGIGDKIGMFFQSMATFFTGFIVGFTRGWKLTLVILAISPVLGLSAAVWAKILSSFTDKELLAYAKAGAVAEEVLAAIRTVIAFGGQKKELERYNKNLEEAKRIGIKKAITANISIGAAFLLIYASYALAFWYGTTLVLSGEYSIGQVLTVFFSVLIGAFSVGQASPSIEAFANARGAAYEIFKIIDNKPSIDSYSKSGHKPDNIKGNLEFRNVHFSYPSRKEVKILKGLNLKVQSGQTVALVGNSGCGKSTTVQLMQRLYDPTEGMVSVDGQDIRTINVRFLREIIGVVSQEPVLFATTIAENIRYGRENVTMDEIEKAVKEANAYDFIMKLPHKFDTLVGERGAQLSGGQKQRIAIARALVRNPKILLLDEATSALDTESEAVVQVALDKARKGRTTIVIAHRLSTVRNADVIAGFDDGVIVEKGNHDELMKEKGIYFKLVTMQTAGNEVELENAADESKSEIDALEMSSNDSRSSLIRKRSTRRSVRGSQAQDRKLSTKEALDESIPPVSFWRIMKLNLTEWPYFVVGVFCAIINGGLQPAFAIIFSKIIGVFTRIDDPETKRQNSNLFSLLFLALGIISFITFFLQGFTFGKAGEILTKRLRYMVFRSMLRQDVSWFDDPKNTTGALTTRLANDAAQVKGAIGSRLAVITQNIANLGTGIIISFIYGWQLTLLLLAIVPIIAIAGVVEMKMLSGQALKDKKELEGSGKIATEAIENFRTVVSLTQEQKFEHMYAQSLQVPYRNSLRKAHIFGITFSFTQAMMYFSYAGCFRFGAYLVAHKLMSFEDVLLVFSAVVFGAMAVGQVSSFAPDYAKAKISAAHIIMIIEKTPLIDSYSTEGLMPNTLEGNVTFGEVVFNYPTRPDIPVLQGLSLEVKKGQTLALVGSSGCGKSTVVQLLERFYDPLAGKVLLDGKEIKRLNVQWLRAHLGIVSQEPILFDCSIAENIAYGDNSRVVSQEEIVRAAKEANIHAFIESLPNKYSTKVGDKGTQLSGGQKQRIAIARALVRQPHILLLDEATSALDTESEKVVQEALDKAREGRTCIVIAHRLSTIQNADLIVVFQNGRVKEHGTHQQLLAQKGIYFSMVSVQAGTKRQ

[7] = molecular target: T4, OATP1B3 (Homo sapiens, UniProt Q9NPD5); settings: cited from earlier work
T4 sequence (Q9NPD5 1-702): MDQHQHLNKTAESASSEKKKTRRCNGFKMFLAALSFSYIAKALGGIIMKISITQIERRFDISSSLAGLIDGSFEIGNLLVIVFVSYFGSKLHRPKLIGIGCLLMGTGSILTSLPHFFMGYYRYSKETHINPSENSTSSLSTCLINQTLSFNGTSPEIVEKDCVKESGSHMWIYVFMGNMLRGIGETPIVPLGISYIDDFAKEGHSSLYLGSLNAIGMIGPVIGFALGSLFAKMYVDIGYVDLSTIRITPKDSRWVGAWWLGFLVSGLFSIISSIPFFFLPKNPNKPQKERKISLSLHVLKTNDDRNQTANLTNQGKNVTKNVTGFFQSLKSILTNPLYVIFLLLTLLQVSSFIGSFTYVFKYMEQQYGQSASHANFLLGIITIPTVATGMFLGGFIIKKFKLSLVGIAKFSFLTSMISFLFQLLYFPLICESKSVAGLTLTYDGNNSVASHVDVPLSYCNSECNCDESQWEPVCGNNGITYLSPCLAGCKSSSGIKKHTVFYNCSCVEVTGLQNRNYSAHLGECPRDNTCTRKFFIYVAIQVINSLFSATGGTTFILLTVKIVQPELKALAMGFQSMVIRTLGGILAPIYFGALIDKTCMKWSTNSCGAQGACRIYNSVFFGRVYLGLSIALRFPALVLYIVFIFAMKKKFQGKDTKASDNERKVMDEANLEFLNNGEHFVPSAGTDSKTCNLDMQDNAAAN

[8] = cocktail substrate + fedratinib 500 mg QD, GM
[9] = cocktail substrate + fedratinib 500 mg QD, Mean (SD)
[10] = cocktail substrate alone, Mean (SD)

Compound | AUC (AUCinf) [3, 8] | Cmax [3, 8] | AUC (AUCinf) [3, 9] | Cmax [3, 9] | AUC (AUCinf) ([3]; cocktail substrate alone, GM) | AUC (AUCinf) [3, 10] | AUC GM Ratio (90% CI) [3] | Cmax GM Ratio (90% CI) [3] | also measured
C[C@]12CC[C@@H]3c4ccc(O)cc4CC[C@H]3[C@@H]1CC[C@@H]2O[C@@H]1O[C@H](C(=O)O)[C@@H](O)[C@H](O)[C@H]1O [Estradiol-17β-glucuronide] | – | – | – | – | – | – | – | – | Km [1]: 8.17 µM
CN(C)C(=N)N=C(N)N [Metformin] | – | – | – | – | – | – | – | – | Km [2]: 235 µM
COCCc1ccc(OCC(O)CNC(C)C)cc1 (stereo not drawn) [Metoprolol] | 1180 ng·h/mL | 199 ng/mL | 1460 (938) ng/mL·h | 221 (106) ng/mL | 731 ng·h/mL | 880 (545) ng/mL·h | 1.77 (1.27–2.47) | 1.60 (1.25–2.05) | AUC GM Ratio (90% CI) ([3]; listed as metoprolol): 1.77; Cmax GM Ratio (90% CI) ([3]; listed as metoprolol): 1.60
Cc1ncc2n1-c1ccc(Cl)cc1C(c1ccccc1F)=NC2 [Midazolam] | 148 ng·h/mL | 24.2 ng/mL | 152 (38.6) ng/mL·h | 25.9 (8.75) ng/mL | 41.5 ng·h/mL | 52.2 (37.9) ng/mL·h | 3.84 (2.62–5.63) | 1.82 (1.49–2.21) | Cmax ([3]; cocktail substrate alone (midazolam 2 mg, omeprazole 20 mg, metoprolol 100 mg once), GM): 13.4 ng/mL; Cmax ([3]; cocktail substrate alone (midazolam 2 mg, omeprazole 20 mg, metoprolol 100 mg once), Mean (SD)): 14.8 (7.56) ng/mL
COc1ccc2[nH]c([S+]([O-])Cc3ncc(C)c(OC)c3C)nc2c1 (stereo not drawn) [Omeprazole] | 4690 ng·h/mL | 537 ng/mL | 5950 (3560) ng/mL·h | 615 (286) ng/mL | 1590 ng·h/mL | 2210 (1740) ng/mL·h | 2.82 (2.26–3.53) | 1.12 (0.81–1.53) | AUC GM Ratio (90% CI) ([3]; listed as omeprazole): 2.82; Cmax GM Ratio (90% CI) ([3]; listed as omeprazole): 1.12
CC(C)NCC(O)COc1cccc2ccccc12 (stereo not drawn) [Propranolol] | – | – | – | – | – | – | – | – | Reference Compound Value (PCaco-2) [4]: 43.000 10E-06 cm/s
CC[N+](CC)(CC)CC [TEA] | – | – | – | – | – | – | – | – | Km [5]: 296 µM
C[C@H]1O[C@@H](O[C@H]2[C@@H](O)C[C@H](O[C@H]3[C@@H](O)C[C@H](O[C@H]4CC[C@@]5(C)[C@H](CC[C@@H]6[C@@H]5C[C@@H](O)[C@]5(C)[C@@H](C7=CC(=O)OC7)CC[C@]65O)C4)O[C@@H]3C)O[C@@H]2C)C[C@H](O)[C@@H]1O [digoxin] | – | – | – | – | – | – | – | – | Km [6]: 385 µM
CCK8 | – | – | – | – | – | – | – | – | Km [7]: 3.8 µM
